Results on 30 molecules are retold here after patent publication US8431593B2, “Heteroaryl amide derivatives” (H. Lundbeck A/S, priority 2006, dated 2013).

This assay has as its target T1, P2X7 receptor (Homo sapiens, UniProt Q99572).
T1 construct: host or cells: SH-SY5Y
T1 sequence (Q99572 1-595): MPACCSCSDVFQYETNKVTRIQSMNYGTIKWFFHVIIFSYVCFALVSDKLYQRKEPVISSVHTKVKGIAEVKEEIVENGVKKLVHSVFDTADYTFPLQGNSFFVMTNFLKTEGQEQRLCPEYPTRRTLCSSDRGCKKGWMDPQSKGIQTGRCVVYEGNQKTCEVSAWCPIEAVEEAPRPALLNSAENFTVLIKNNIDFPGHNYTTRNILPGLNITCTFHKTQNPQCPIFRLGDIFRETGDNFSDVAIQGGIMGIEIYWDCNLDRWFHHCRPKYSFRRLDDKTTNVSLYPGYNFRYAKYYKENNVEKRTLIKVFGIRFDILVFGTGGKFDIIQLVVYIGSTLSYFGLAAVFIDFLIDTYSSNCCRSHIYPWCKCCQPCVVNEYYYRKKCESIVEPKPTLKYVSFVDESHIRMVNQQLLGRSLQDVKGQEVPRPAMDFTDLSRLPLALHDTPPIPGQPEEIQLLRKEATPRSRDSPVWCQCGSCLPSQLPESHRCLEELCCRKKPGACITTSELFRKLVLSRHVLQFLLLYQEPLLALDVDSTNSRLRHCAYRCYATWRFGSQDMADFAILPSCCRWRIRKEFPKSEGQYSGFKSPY
Put plainly: P2X7 calcium mobilization assay, high throughput, antagonist activity (Example 4A). To be noted: 50% decrease in the fluorescence response of cells exposed to 80 μM of 2′(3′)-O-(4-benzoyl-benzoyl)adenosine 5′-triphosphate; Example 4A; read-out: IC50. It counts as cell-based. Put shortly: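 Cells plated 100,000/well the day before; after 1 h dye loading and one rinse, cells were preincubated 1 h at room temperature with test compound. Calcium mobilization then read on FLIPR^TETRA; maximum RFU corrected by subtracting mean no-agonist response and referenced to mean agonist-control maximum.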

As for `O=C(NC1CCNCC1)c1cn2c(C(=O)NCC34CC5CC(CC(C5)C3)C4)cccc2n1` [Compound 637, 5-N-(adamantan-1-ylmethyl)-2-N-piperidin-4-ylimidazo[1,2-a]pyridine-2,5-dicarboxamide], the IC50 – broadly, the concentration that inhibits the measured activity by half – was below 2 µM.
Under `O=C(NCC1CCCN1)c1cn2c(C(=O)NCC34CC5CC(CC(C5)C3)C4)cccc2n1` (stereo not drawn) [Compound 639, 5-N-(adamantan-1-ylmethyl)-2-N-(pyrrolidin-2-ylmethyl)imidazo[1,2-a]pyridine-2,5-dicarboxamide] stands below 2 µM; under `NC1CC2CCC(C1)N2C(=O)c1cn2c(C(=O)NCC34CC5CC(CC(C5)C3)C4)cccc2n1` (stereo not drawn) [Compound 640, N-(adamantan-1-ylmethyl)-2-[(3-amino-8-azabicyclo[3.2.1]oct-8-yl)carbonyl]imidazo[1,2-a]pyridine-5-carboxamide], below 2 µM.
With `CCN1CCCC1CNC(=O)c1cn2c(C(=O)NCC34CC5CC(CC(C5)C3)C4)cccc2n1` (stereo not drawn) [Compound 643, 5-N-(adamantan-1-ylmethyl)-2-N-[(1-ethylpyrrolidin-2-yl)methyl]imidazo[1,2-a]pyridine-2,5-dicarboxamide], the IC50 was below 2 µM.
Under `CN(C)CC(C)(C)CNC(=O)c1cn2c(C(=O)NCC34CC5CC(CC(C5)C3)C4)cccc2n1` [Compound 644, 5-N-(adamantan-1-ylmethyl)-2-N-[3-(dimethylamino)-2,2-dimethylpropyl] imidazo[1,2-a] pyridine-2,5-dicarboxamide] stands below 2 µM; under `O=C(NCCCN1CCCC1)c1cn2c(C(=O)NCC34CC5CC(CC(C5)C3)C4)cccc2n1` [Compound 645, 5-N-(adamantan-1-ylmethyl)-2-N-(3-pyrrolidin-1-ylpropyl)imidazo[1,2-a]pyridine-2,5-dicarboxamide], below 2 µM.
With `O=C(NCCN1CCCC1)c1cn2c(C(=O)NCC34CC5CC(CC(C5)C3)C4)cccc2n1` [Compound 646, 5-N-(adamantan-1-ylmethyl)-2-N-(2-pyrrolidin-1-ylethyl)imidazo[1,2-a]pyridine-2,5-dicarboxamide], the IC50 was below 2 µM.
`CN(C)CCCNC(=O)c1cn2c(C(=O)NCC34CC5CC(CC(C5)C3)C4)cccc2n1` [Compound 647, 5-N-(adamantan-1-ylmethyl)-2-N-[3-(dimethylamino)propyl]imidazo [1,2-a]pyridine-2,5-dicarboxamide]: the IC50 was below 2 µM.
Consider `O=C(NCCN1CCOCC1)c1cn2c(C(=O)NCC34CC5CC(CC(C5)C3)C4)cccc2n1` [Compound 648, 5-N-(adamantan-1-ylmethyl)-2-N-(2-morpholin-4-ylethyl)imidazo[1,2-a]pyridine-2,5-dicarboxamide], for which the IC50 is below 2 µM.
In the case of `CN1CCCC1CCNC(=O)c1cn2c(C(=O)NCC34CC5CC(CC(C5)C3)C4)cccc2n1` (stereo not drawn) [Compound 649, 5-N-(adamantan-1-ylmethyl)-2-N-[2-(1-methylpyrrolidin-2-yl)ethyl]imidazo[1,2-a]pyridine-2,5-dicarboxamide], the IC50 was below 2 µM.
In the case of `O=C(NCCN1CCCCC1)c1cn2c(C(=O)NCC34CC5CC(CC(C5)C3)C4)cccc2n1` [Compound 650, 5-N-(adamantan-1-ylmethyl)-2-N-(2-piperidin-1-ylethyl)imidazo[1,2-a]pyridine-2,5-dicarboxamide], the IC50 is below 2 µM.
With `CCN(CC)CCNC(=O)c1cn2c(C(=O)NCC34CC5CC(CC(C5)C3)C4)cccc2n1` [Compound 651, 5-N-(adamantan-1-ylmethyl)-2-N-[2-(diethylamino)ethyl]imidazo [1,2-a]pyridine-2,5-dicarboxamide], the half-maximal inhibitory concentration (IC50) was below 2 µM.
With `CC(C)N(CCNC(=O)c1cn2c(C(=O)NCC34CC5CC(CC(C5)C3)C4)cccc2n1)C(C)C` [Compound 652, 5-N-(adamantan-1-ylmethyl)-2-N-[2-(diisopropylamino)ethyl]imidazo [1,2-a] pyridine-2,5-dicarboxamide] the figure was below 2 µM.
For the molecule `CC(CN(C)C)NC(=O)c1cn2c(C(=O)NCC34CC5CC(CC(C5)C3)C4)cccc2n1` (stereo not drawn) [Compound 653, 5-N-(adamantan-1-ylmethyl)-2-N-[2-(dimethylamino)-l-methylethyl] imidazo[1,2-a]pyridine-2,5-dicarboxamide], the IC50 is below 2 µM.
Regarding `O=C(NCCCN1CCOCC1)c1cn2c(C(=O)NCC34CC5CC(CC(C5)C3)C4)cccc2n1` [Compound 654, 5-N-(adamantan-1-ylmethyl)-2-N-(3-morpholin-4-ylpropyl)imidazo [1,2-a]pyridine-2,5-dicarboxamide], the IC50 was below 2 µM.
Under `O=C(NCc1cccnc1)c1cn2c(C(=O)NCC34CC5CC(CC(C5)C3)C4)cccc2n1` [Compound 655, 5-N-(adamantan-1-ylmethyl)-2-N-(pyridin-3-ylmethyl) imidazo[1,2-a]pyridine-2,5-dicarboxamide] stands below 2 µM.
With `Cc1cnc(CNC(=O)c2cn3c(C(=O)NCC45CC6CC(CC(C6)C4)C5)cccc3n2)cn1` [Compound 656, 5-N-(adamantan-1-ylmethyl)-2-N-[(5-methylpyrazin-2-yl)methyl]imidazo[1,2-a]pyridine-2,5-dicarboxamide] the figure was below 2 µM.
Consider `CCN(CC)CCCNC(=O)c1cn2c(C(=O)NCC34CC5CC(CC(C5)C3)C4)cccc2n1` [Compound 658, 5-N-(adamantan-1-ylmethyl)-2-N-[3-(diethylamino)propyl] imidazo[1,2-a] pyridine-2,5-dicarboxamide], for which the IC50 was below 2 µM.
Under `CN1CCC(NC(=O)c2cn3c(C(=O)NCC45CC6CC(CC(C6)C4)C5)cccc3n2)CC1` [Compound 659, 5-N-(adamantan-1-ylmethyl)-2-N-(1-methylpiperidin-4-yl)imidazo[1,2-a]pyridine-2,5-dicarboxamide] stands below 2 µM; under `O=C(NCCc1ccncc1)c1cn2c(C(=O)NCC34CC5CC(CC(C5)C3)C4)cccc2n1` [Compound 660, 5-N-(adamantan-1-ylmethyl)-2-N-(2-pyridin-4-ylethyl)imidazo[1,2-a]pyridine-2,5-dicarboxamide], below 2 µM; under `O=C(NCc1ccncc1)c1cn2c(C(=O)NCC34CC5CC(CC(C5)C3)C4)cccc2n1` [Compound 661, 5-N-(adamantan-1-ylmethyl)-2-N-(pyridin-4-ylmethyl)imidazo [1,2-a]pyridine-2,5-dicarboxamide], below 2 µM.
Under `O=C(N[C@@H]1CN2CCC1CC2)c1cn2c(C(=O)NCC34CC5CC(CC(C5)C3)C4)cccc2n1` [Compound 662, 5-N-(adamantan-1-ylmethyl)-2-N-[(3S)-1-azabicyclo[2.2.2]oct-3-yl]imidazo[1,2-a]pyridine-2,5-dicarboxamide] stands below 2 µM.
With `CN1CCCCC1CCNC(=O)c1cn2c(C(=O)NCC34CC5CC(CC(C5)C3)C4)cccc2n1` (stereo not drawn) [Compound 664, 5-N-(adamantan-1-ylmethyl)-2-N-[2-(1-methylpiperidin-2-yl)ethyl]imidazo[1,2-a]pyridine-2,5-dicarboxamide] the figure was below 2 µM.
Consider `CN1CCCCC1CNC(=O)c1cn2c(C(=O)NCC34CC5CC(CC(C5)C3)C4)cccc2n1` (stereo not drawn) [Compound 666, 5-N-(adamantan-1-ylmethyl)-2-N-[(1-methylpiperidin-2-yl)methyl]imidazo[1,2-a]pyridine-2,5-dicarboxamide], for which the IC50 was below 2 µM.
With `CN1C2CCC1CC(NC(=O)c1cn3c(C(=O)NCC45CC6CC(CC(C6)C4)C5)cccc3n1)C2` (stereo not drawn) [Compound 667, 5-N-(adamantan-1-ylmethyl)-2-N-(8-methyl-8-azabicyclo[3.2.1]oct-3-yl)imidazo[1,2-a]pyridine-2,5-dicarboxamide] the figure was below 2 µM; with `CN1CCCC(CNC(=O)c2cn3c(C(=O)NCC45CC6CC(CC(C6)C4)C5)cccc3n2)C1` (stereo not drawn) [Compound 668, 5-N-(adamantan-1-ylmethyl)-2-N-[(1-methylpiperidin-3-yl)methyl]imidazo[1,2-a]pyridine-2,5-dicarboxamide], below 2 µM.
Under `CN(C)C1CCN(C(=O)c2cn3c(C(=O)NCC45CC6CC(CC(C6)C4)C5)cccc3n2)CC1` [Compound 669, N-(adamantan-1-ylmethyl)-2-{[4-(dimethylamino)piperidin-1-yl]carbonyl}imidazo[1,2-a]pyridine-5-carboxamide] stands below 2 µM; under `CN(C)CCCN(C)C(=O)c1cn2c(C(=O)NCC34CC5CC(CC(C5)C3)C4)cccc2n1` [Compound 670, 5-N-(adamantan-1-ylmethyl)-2-N-[3-(dimethylamino)propyl]-2-N-methylimidazo[1,2-a]pyridine-2,5-dicarboxamide], below 2 µM; under `CN1CCC(N(C)C(=O)c2cn3c(C(=O)NCC45CC6CC(CC(C6)C4)C5)cccc3n2)CC1` [Compound 671, 5-N-(adamantan-1-ylmethyl)-2-N-methyl-2-N-(1-methylpiperidin-4-yl)imidazo[1,2-a]pyridine-2,5-dicarboxamide], below 2 µM.
Turning to `CCN(CCN(C)C)C(=O)c1cn2c(C(=O)NCC34CC5CC(CC(C5)C3)C4)cccc2n1` [Compound 672, 5-N-(adamantan-1-ylmethyl)-2-N-[2-(dimethylamino)ethyl]-2-N-ethylimidazo[1,2-a]pyridine-2,5-dicarboxamide], the IC50 was below 2 µM.
